Measured values from US20260315477A1, “THERAPEUTIC APPROACH TO BLOCK TERMINAL EXHAUSTION OF T CELLS AND SYNERGIZETHE EFFICACY OF T CELL IMMUNOTHERAPIES” (priority 2023, published 2026).
“Also recorded” adds a separate entry of the source.

Legend:
[1] = tested on: dysfunctional human CD8 T cells; experiment: In vitro model of human CD8 T cell dysfunction (chronic TCR plus TGFβ1 stimulation, day 28): effector functions, polyfunctionality, memory programs; assay type: cell-based; conditions: for effector functions of human TEX cells: FIGS. 49A-49E
[2] = target: KDM5A and KDM5B; conditions: cited from earlier work
[3] = cited from earlier work
[4] = tested on: myeloma cells; conditions: cited from earlier work
[5] = tested on: H3K4me3; conditions: myeloma cells; cited from earlier work
[6] = tested on: AML cells; experiment: Tumor-killing activity of treated dysfunctional human CD8 T cells (coculture with AML cells, 18 hr); assay type: cell-based; conditions: with TGFβ1 blockade (TGFBR1 blocker); 25 μM GSK467; days 14-28
[7] = tested on: TBX21 locus; experiment: DNA methylation at dysfunction-associated differentially methylated region, targeted Oxford Nanopore assay; assay type: cell-based, human; conditions: GSK467 with or without TGFBR1 inhibitor (Repsox)
Method: To determine whether targeting H3K4 demethylation can reduce de novo DNA methylation programs at the effector function-related genes in human CD8 T cells, the changes in DNA methylation levels were assessed at the dysfunction-associated differentially methylated region in dysfunctional human CD8 T cells after GSK467 (KDM5A/B inhibitor) with or without TGFBR1 inhibitor (Repsox) treatment.

[8] = tested on: B16-F10-GP33 melanoma cells; experiment: In vitro tumor cell death of B16 melanoma cells; assay type: cell-based; conditions: 24, 48 and 72 hours, different doses
Source text: Ordinary two-way ANOVA test, Dunnett's test. Error bars indicate SEM. N=4 replica of 2 independent experiments.

[9] = tested on: virus-specific exhausted CD8 T cells; assay type: in vivo, mouse
[10] = tested on: B16-F10 melanoma; experiment: B16-F10 melanoma model; assay type: in vivo, mouse; conditions: 5 mg/Kg, every 2 days i.p.
Source text: (§1) Targeting KDM5B in melanoma cells leads to enhanced tumor rejection by derepressing the expression of endogenous retroviral elements in tumor cells and reducing immune evasion of tumor cells. These findings provide a strong rationale for testing the in vivo efficacy of a selective KDM5A/B inhibitor as an adjunctive treatment to ICB therapy in ICB-refractory tumors. Discussed herein is whether the pharmacological inhibition of KDM5A/B recovers the responses of anti-tumor CD8 T cells to ICB treatment during solid tumors. Utilized herein are two tumor models known to be refractory to PD-1/PD-L1 blockade therapy, including orthotopic OVA-expressing PyMT breast adenocarcinoma and GP33-expressing B16-F10 melanoma in C57BL/6 animals. One week following the adoptive transfer of Thy1.1+TCR-transgenic CD8 T cells (OVA-specific OT-I or GP33-specific P14 cells) into tumor-bearing animals, mono- or combined therapy using KDM5A/Bi plus anti-PD-L 1 treatment was started (FIG. 25A-25B). Changes in tumor growth was tracked and measure the quantity, phenotype, proliferative potential, and functional capacity of adoptively transferred anti-tumor CD8 T cells measured within tumors and draining lymph nodes using spectral cytometry as described herein. […]

[11] = tested on: CT2A-gp33 glioma; experiment: CT2A-gp33 glioma model; assay type: in vivo, mouse; conditions: combined with PD-L1 blockade; CD8-KO or Rag1-KO animals, P14 CD8 T cells transferred
[12] = tested on: tumor-specific CD8 T cells; experiment: Tumor-infiltrating lymphocyte analysis in CT2A-gp33 glioma model; assay type: in vivo, mouse; conditions: combined with PD-L1 blockade
Method: CT2A-gp33 Glioma Model: The efficacy of GSK467 therapy was tested using CT2A-gp33 glioma model with gp33-specific P14 CD8 T cells adoptively transferred on day 17-20. […] (FIGS. 38A-38C)

[13] = tested on: PyMT-OVA breast adenocarcinoma; experiment: Orthotopic breast cancer model (PyMT-OVA breast adenocarcinoma); assay type: in vivo, mouse; conditions: combined with PD-L1 blockade, compared to PD-L1 blockade only
Source text: FIGS. 16A-16C show therapeutic blockade of KDM5A and KDM5B boosts the responses of anti-tumor CD8 T cells to ICB therapy.
as §1

[14] = tested on: Tprog, Tcyto and Tterm CD8 T cells; conditions: mouse, in vivo
[15] = tested on: P14 CD8 T cells; conditions: mouse, in vivo
[16] = tested on: KDM6; conditions: cited from earlier work
[17] = tested on: other Jumonji family members; conditions: cited from earlier work
[18] = tested on: TEX cells; conditions: cited from earlier work
[19] = tested on: other immune cells; conditions: cited from earlier work
[20] = either GSK467 or C70, C70 25 μM, days 14-28

## CCOC(=O)c1ccnc(CNCC(=O)N(CC)CCN(C)C)c1 [C70]
[1]
  effector functions of human TEX cells: enhances effector functions of human TEX cells
[1]; [20]
  polyfunctionality and memory expression programs: significantly enhanced polyfunctionality and memory expression programs
[2]
  KDM5A and KDM5B histone demethylase inhibition: potent
[3]
  cell penetration / permeability: cell-permeable
[4]
  antiproliferative effect: antiproliferative effect
[5]
  H3K4me3 levels: genome-wide elevation of H3K4me3 levels

## O=c1nc(Oc2cnn(Cc3ccccc3)c2)[nH]c2cnccc12 [GSK467]
[1]
  effector functions of human TEX cells: enhances effector functions of human TEX cells
[1]; [20]
  polyfunctionality and memory expression programs: significantly enhanced polyfunctionality and memory expression programs
[1]; in vitro, direct effects on CD8 T cells
  cytolytic activity and effector functions of dysfunctional human T cells: enhances the cytolytic activity and effector functions of dysfunctional human T cells
[1]; late treatment
  effector and memory programs in dysfunctional human CD8 T cells: can recover effector and memory programs
[1]; monotherapy, 25 μM GSK467, days 14-28
  effector cytokine secretion and expression of memory-related transcription factors: significantly restored effector cytokine secretion and expression of memory-related transcription factors
[1]; with TGFβ1 blockade (TGFBR1 blocker), 25 μM GSK467, days 14-28
  polyfunctionality and memory expression programs: further potentiated the reactivation of polyfunctionality and memory expression programs
[6]
  tumor-killing activity: augmented tumor-killing activity
[7]
  acquisition of de novo DNA methylation marks at the TBX21 locus: significantly reduced the acquisition of de novo DNA methylation marks at the TBX21 locus
[8]
  tumor cell death, frequencies of dead B16 melanoma cells: increases B16 melanoma tumor death in vitro
[9]; mouse, in vivo
  expansion of IFNG-secreting virus-specific CD8 T cells: significant expansion of both Tprog and Tcyto cells, as well as IFNG-secreting virus-specific CD8 T cells
  expansion of Tprog and Tcyto cells: significant expansion of both Tprog and Tcyto cells
  responses of virus-specific exhausted CD8 T cells to PD-L1 blockade: enhanced the responses of virus-specific TEX cells to PD-L1 blockade; also recorded: enhanced the responses of virus-specific exhausted CD8 T cells to PD-L1 blockade
[9]; with anti-PD-L1 (FIGS. 7A-7E)
  TEX cell responses to ICB during chronic LCMV infection: enhances TEX responses to ICB
[10]; combination with PD-L1 blockade, days 12-20
  tumor control, combination: further potentiated with combination PD-L1 blockade therapy
[10]; monotherapy, days 12-20 post-tumor inoculation
  tumor control: significant tumor control
[11]
  tumor control: significant tumor control
[12]
  frequencies of IFNG-secreting tumor-specific CD8 T cells: increased frequencies of IFNG-secreting tumor-specific CD8 T cells
  quantities of tumor-specific CD8 T cells: significant increase in the quantities of tumor-specific CD8 T cells
[13]
  breast tumor control: significant breast tumor control
[14]
  development of Tterm cells: impeding the development of Tterm cells
  quantity of Tcyto cells: increased the quantity of Tcyto cells
[15]
  proliferation response and long-lived memory function after ICB treatment: synergized their proliferation response and promote long-lived memory function after ICB treatment
[2]; role: inhibitor, stated for KDM5A and KDM5B together
  Ki: 10 nM
[2]; stated for KDM5A and KDM5B together
  IC50: 26 nM
[16]
  inhibitory effects toward KDM6: no measurable inhibitory effects
[17]
  inhibitory effects toward other Jumonji family members: no measurable inhibitory effects
[3]
  cell penetration / permeability: cell penetrant

## Cc1cccc(-c2[nH]ncc2-c2ccc3ncccc3n2)n1 [TGFBR1 blocker]
[1]; TGFβ1 blockade alone, days 14-28
  effector functions of chronically stimulated CD8 T cells: recovered effector functions of chronically stimulated CD8 T cells

## Nc1ncn([C@H]2C[C@H](O)[C@@H](CO)O2)c(=O)n1 [decitabine]
[18]
  response of TEX cells, with ICB therapy: synergizes with ICB therapy to rescue the response of TEX cells
[19]
  cytotoxicity and adverse effects: highly cytotoxic drug that has adverse effects on other immune cells
  selectivity: non-selective
